Measured values from patent US6469023B1, “Heterocyclic spiro-derivative” (Daiichi Pharmaceutical Co., Ltd., priority 1995, dated 2002).
Converted amounts (≈) assume the structure as drawn. Like-named read-outs stand apart in the source and are kept apart here.

Legend:
Test in all cases: Antibacterial activity, standard method of Japan Society of Chemotherapy (MIC)
Type in all cases: cell-based
S. epidermidis, 56500 = tested on: S. epidermidis, 56500
Experimental: (§1) The following Inventive and Reference Examples are provided to further illustrate the present invention, but not by way of limitation. The antibacterial activity of optically active compounds of interest was tested in accordance with the standard method designated by Japan Society of Chemotherapy. The results are shown in Table 1 as MIC (μg/ml). [drawing 10]

S. aureus, 209P = tested on: S. aureus, 209P
Experimental: as §1

Ser. marcescens, 10100 = tested on: Ser. marcescens, 10100
Experimental: as §1

[1] = tested on: Ps. maltophilia, IID-1275
Experimental: as §1

Ps. aeruginosa, 32104 = tested on: Ps. aeruginosa, 32104
Experimental: as §1

S. aureus, 87037 = tested on: S. aureus, 87037
Experimental: as §1

S. flexneri, 2A 5503 = tested on: S. flexneri, 2A 5503
Experimental: as §1

E. coli, NIHJ = tested on: E. coli, NIHJ
Experimental: as §1

[2] = tested on: Str. faeccalis, ATCC-19433
Experimental: as §1

Str. pyogenes, G-36 = tested on: Str. pyogenes, G-36
Experimental: as §1

Pr. mirabilis, IFO-3849 = tested on: Pr. mirabilis, IFO-3849
Experimental: as §1

Ps. aeruginosa, 32121 = tested on: Ps. aeruginosa, 32121
Experimental: as §1

Pr. vulgaris, 08601 = tested on: Pr. vulgaris, 08601
Experimental: as §1

[3] = Staphylococcus epidermidis, 56500, S. epidermidis, read-out: MIC
[4] = Staphylococcus aureus, read-out: MIC
[5] = Serratia marcescens, read-out: MIC
[6] = Stenotrophomonas maltophilia, IID1275, Ps. maltophilia, read-out: MIC
[7] = Pseudomonas aeruginosa, 32104, Ps. aeruginosa, read-out: MIC
[8] = Staphylococcus aureus, 87037, S. aureus, read-out: MIC
[9] = Shigella flexneri, 2A5503, read-out: MIC
[10] = Escherichia coli, read-out: MIC
[11] = Streptococcus pyogenes, G36, Str. pyogenes, read-out: MIC
[12] = Proteus mirabilis, IFO3849, Pr. mirabilis, read-out: MIC
[13] = Pseudomonas aeruginosa, read-out: MIC
[14] = Proteus vulgaris, 08601, Pr. vulgaris, read-out: MIC

SMILES	MIC (S. epidermidis, 56500; [3])	MIC (S. aureus, 209P; [4])	MIC (Ser. marcescens, 10100; [5])	MIC [1, 6]	MIC (Ps. aeruginosa, 32104; [7])	MIC (S. aureus, 87037; [8])	MIC (S. flexneri, 2A 5503; [9])	MIC (E. coli, NIHJ; [10])	MIC ([2]; read-out: MIC)	MIC (Str. pyogenes, G-36; [11])	MIC (Pr. mirabilis, IFO-3849; [12])	MIC (Ps. aeruginosa, 32121; [13])	MIC (Pr. vulgaris, 08601; Pr. vulgaris)	MIC (S. epidermidis, 56500; S. epidermidis)	MIC (S. aureus, 209P)	MIC (Ser. marcescens, 10100)	MIC ([1]; Ps. maltophilia)	MIC (Ps. aeruginosa, 32104; Ps. aeruginosa)	MIC (S. aureus, 87037; S. aureus)	MIC (Str. pyogenes, G-36; Str. pyogenes)	further results
Nc1c(F)c(N2CCC3(CC3N)C2)c(F)c2c1c(=O)c(C(=O)O)cn2[C@@H]1C[C@@H]1F (single isomer, unassigned) [Example 1]	≤ 0.003 µg/mL	≤ 0.003 µg/mL	0.025 µg/mL (≈ 0.0612 µM)	0.025 µg/mL (≈ 0.0612 µM)	0.025 µg/mL (≈ 0.0612 µM)	0.05 µg/mL (≈ 0.122 µM)	≤ 0.003 µg/mL	≤ 0.003 µg/mL	0.025 µg/mL (≈ 0.0612 µM)	0.013 µg/mL (≈ 0.0318 µM)	0.013 µg/mL (≈ 0.0318 µM)	0.025 µg/mL (≈ 0.0612 µM)	0.006 µg/mL (≈ 0.0147 µM)	–	–	–	–	–	–	–	–
Nc1c(F)c(N2CCC3(CC3N)C2)c(F)c2c1c(=O)c(C(=O)O)cn2[C@@H]1C[C@@H]1F (single isomer, unassigned) [Example 4]	–	–	–	–	–	–	–	–	–	–	–	–	0.013 µg/mL (≈ 0.0318 µM)	≦0.003 μg/ml	≦0.003 μg/ml	0.025 µg/mL (≈ 0.0612 µM)	0.025 µg/mL (≈ 0.0612 µM)	0.05 µg/mL (≈ 0.122 µM)	0.05 µg/mL (≈ 0.122 µM)	0.013 µg/mL (≈ 0.0318 µM)	MIC (S. flexneri, 2A 5503): ≦0.003 μg/ml; MIC (E. coli, NIHJ): ≦0.003 μg/ml; MIC [2]: 0.025 µg/mL (≈ 0.0612 µM); MIC (Pr. mirabilis, IFO-3849; Pr. mirabilis): 0.025 µg/mL (≈ 0.0612 µM); MIC (Ps. aeruginosa, 32121): 0.025 µg/mL (≈ 0.0612 µM)
Cc1c(N2CCC3(CC3N)C2)c(F)c(N)c2c(=O)c(C(=O)O)cn([C@@H]3C[C@@H]3F)c12 (single isomer, unassigned) [Example 5]	0.013 µg/mL (≈ 0.0321 µM)	≤ 0.003 µg/mL	0.05 µg/mL (≈ 0.124 µM)	0.05 µg/mL (≈ 0.124 µM)	0.05 µg/mL (≈ 0.124 µM)	0.1 µg/mL (≈ 0.247 µM)	≤ 0.003 µg/mL	≤ 0.003 µg/mL	0.05 µg/mL (≈ 0.124 µM)	0.05 µg/mL (≈ 0.124 µM)	0.05 µg/mL (≈ 0.124 µM)	0.025 µg/mL (≈ 0.0618 µM)	–	–	–	–	–	–	–	–	MIC (Pr. vulgaris, 08601; [14]): 0.013 µg/mL (≈ 0.0321 µM)
Cc1c(N2CCC3(CC3N)C2)c(F)cc2c(=O)c(C(=O)O)cn([C@@H]3C[C@@H]3F)c12 (single isomer, unassigned) [Example 6]	–	≤ 0.003 µg/mL	0.025 µg/mL (≈ 0.0642 µM)	0.05 µg/mL (≈ 0.128 µM)	0.05 µg/mL (≈ 0.128 µM)	–	≤ 0.003 µg/mL	≤ 0.003 µg/mL	0.05 µg/mL (≈ 0.128 µM)	–	0.013 µg/mL (≈ 0.0334 µM)	0.025 µg/mL (≈ 0.0642 µM)	–	0.013 µg/mL (≈ 0.0334 µM)	–	–	–	–	0.10 µg/mL (≈ 0.257 µM)	0.013 µg/mL (≈ 0.0334 µM)	MIC (Pr. vulgaris, 08601; [14]): ≤ 0.003 µg/mL
Cc1c(N2CCC3(CC3N)C2)c(F)cc2c(=O)c(C(=O)O)cn([C@@H]3C[C@@H]3F)c12 (single isomer, unassigned) [Example 7]	–	–	–	–	–	–	–	–	–	–	–	–	≦0.003 μg/ml	0.006 µg/mL (≈ 0.0154 µM)	≦0.003 μg/ml	0.025 µg/mL (≈ 0.0642 µM)	0.025 µg/mL (≈ 0.0642 µM)	0.05 µg/mL (≈ 0.128 µM)	0.25 µg/mL (≈ 0.642 µM)	0.006 µg/mL (≈ 0.0154 µM)	MIC (S. flexneri, 2A 5503): ≦0.003 μg/ml; MIC (E. coli, NIHJ): ≦0.003 μg/ml; MIC [2]: 0.025 µg/mL (≈ 0.0642 µM); MIC (Pr. mirabilis, IFO-3849; Pr. mirabilis): 0.013 µg/mL (≈ 0.0334 µM); MIC (Ps. aeruginosa, 32121): 0.025 µg/mL (≈ 0.0642 µM)
